Values quoted from earlier work, collected in JP2008055197A (priority 2007, dated 2008).

What does the source list for `O=[N+]([O-])OCC(CO[N+](=O)[O-])O[N+](=O)[O-]` [ニトログリセリン]?
solubility in ethyl alcohol, isopropyl alcohol and the like (ethyl alcohol, isopropyl alcohol and the like): 溶解する; solubility in water (water): 不溶
